Earlier results as cited in patent US12409146B2, “Solid lipid nanoparticle for intracellular release of active substances and method for production the same” (LEAD BIOTHERAPEUTICS LTD, priority 2017, dated 2025).
Values after ≈ are worked out from the molar mass of the structure shown.

In the case of `C[C@@H]1C[C@H]2[C@@H]3CCC4=CC(=O)C=C[C@]4(C)[C@@]3(Cl)[C@@H](O)C[C@]2(C)[C@@]1(OC(=O)c1ccco1)C(=O)CCl` [Mometasone furoate], the water solubility is listed as 5.23 µg/mL (≈ 10 µM).
